Source: PMC9464622, “The collectin SP-A and its trimeric recombinant fragment protect alveolar epithelial cells from the cytotoxic and proinflammatory effects of human cathelicidin in vitro” (Frontiers in Immunology, 2022)

How the values were obtained:
A549 cells = experiment: LL-37-induced IL-8 secretion (ELISA); type: cell-based, human; conditions: A-438079 10 µM, 15 min pre-treatment; LL-37 15 µM, 24 h
Method: A549 cells were seeded to a density of 50,000 cells per well in a 96-well tissue culture plate for 18 h in RPMI 1640 medium supplemented with antibiotics, 2 mM L-glutamine, and 5% FBS.
Secreted IL-8 was quantified in supernatants of A549 cells by ELISA (R&D Systems) following the supplier instructions. Briefly, anti-human IL-8 was coated on a 96-well Nunc-Immuno Plate MaxiSorp Surface (Thermo Scientific, Waltham, MA) in PBS overnight. After blocking with PBS and 10% FBS, and extensive washing, samples and standards were incubated for 2 h at room temperature. IL-8 cytokine was detected with biotinylated detection antibody and streptavidin-HRP. The colorimetric reaction was developed with tetramethylbenzidine (BD Biosciences, San Diego, CA) and was stopped with 4 M sulfuric acid. The absorbance at 450 nm was read on an ELISA reader (RT-6100 plate reader, Rayto Life and Analytical Sciences, Shenzhen, China).

human endothelial cells = conditions: cited from earlier work
From the text: (§1) The host appears to protect its own cells from LL-37 cytotoxicity by several mechanisms. […] In addition, the C1q globular head receptor (gC1qR, also known as p33) protects ...

[1] = cited from earlier work
From the text: The host appears to protect its own cells from LL-37 cytotoxicity by several mechanisms.

[2] = Circular dichroism: secondary structure with and without bacterial lipid vesicles; type: physicochemical; conditions: far-UV CD, 25°C, 5 mM Tris-HCl, 150 mM NaCl pH 7.4; 100 µg/ml LL-37, 75 µg/ml SP-A or rfhSP-A; mixture compared with sum of individual spectra
Method: Circular dichroism (CD) spectra were obtained on a Jasco J-715 spectropolarimeter fitted with a 150 W xenon lamp ([38]). Quartz cells with a 0.1 cm optical path length were used, and the spectra were recorded in the far-UV region (190-260 nm) with a scanning speed of 50 nm/minute at 25°C. Four scans were accumulated and averaged for each spectrum. The acquired spectra were corrected by subtracting the appropriate blanks, subjected to noise reduction analysis, and presented as molar ellipticities (degrees cm2 dmol-1) assuming 110 Da as the average molecular mass per amino acid residue. At least three independent preparations of LL-37, SP-A, and rfhSP-A were measured. Spectra Manager Software (Jasco version 1.53) was used.
Two types of lipid vesicles were used: vesicles mimicking the bacterial cell wall (Re-LPS/BPL at a ratio of 08:02 by weight), and vesicles of bacterial inner membrane phospholipids (BPL). The final concentrations were 100 μg/ml (22.2 μM) for LL-37, 75 μg/ml (0.11 μM) for SP-A, and 75 μg/ml (1.3 μM) for rfhSP-A, in a final volume of 200 μl of 5 mM Tris-HCl, NaCl 150 mM, pH 7.4 buffer.
Vesicles mimicking the inner membrane of Gram-negative bacteria were prepared by mixing POPE, POPG, and CL at weight ratios of 67:23:10. […]

influenza A virus = conditions: cited from earlier work
From the text: as §1

[3] = system: alveolar epithelial cells; conditions: cited from earlier work
From the text: as §1

[4] = LPS vesicle aggregation assay (turbidity, DLS); type: biochemical, Salmonella enterica serotype Minnesota; conditions: Re-LPS/BPL 50 µg/ml, 75 nM SP-A, 1.1 µM LL-37, 0.43 µM rfhSP-A, 37°C
Method: Vesicles mimicking the inner membrane of Gram-negative bacteria were prepared by mixing POPE, POPG, and CL at weight ratios of 67:23:10. Alternatively, vesicles mimicking bacterial outer membrane were prepared by adding ReLPS to the POPE/POPG/CL mixture (BPL, bacterial phospholipids) at a weight ratio of 8:2, as previously reported ([25]). Multilamellar vesicles and large unilamellar vesicles of DPPC and surfactant-like vesicles composed of DPPC, POPG, and palmitic acid (PA) (at weight ratios of 23:10:1.6) were prepared as previously reported ([28], [33]–[35], [39]).
Turbidity measurements: The effects of SP-A, rfhSP-A, and calcium on the aggregation of LPS vesicles that mimic bacterial outer membranes were studied in the absence and presence of LL-37 by measuring the change in absorbance at 400 nm in a Beckman DU-800 spectrophotometer ([28], [39]). Briefly, LPS vesicles (50 μg/ml) were added to both the sample and the reference cuvettes in 5 mM Tris-HCl and 150 mM NaCl 0.1 mM EDTA buffer, pH 7.4. After 10 min equilibration at 37°C, either human SP-A, rfhSP-A, LL-37, or combinations thereof was added to the sample cuvette, and the change in optical density at 400 nm was monitored. Next, 2.5 mM Ca^2+ was added to both the sample and reference cuvettes, and the change in absorbance was monitored again. Aggregation of surfactant phospholipid vesicles was performed in the same way. […]

[5] = system: nontypeable Haemophilus influenzae; experiment: Bacterial killing assay, NTHi; conditions: 10^5 CFU/ml, PBS + 1% TSB, 1 h 37°C; SP-A 0.025 µM, rfhSP-A 0.15 µM; increasing LL-37
Method: (§2) Klebsiella pneumoniae 52145 (serotype K2:O1), nontypeable Haemophilus influenzae strain 375 (NTHi), and P. aeruginosa (PAO1) are clinical isolates, as previously described ([40]–[42]). P. aeruginosa, and K. pneumoniae K2 were grown in Luria–Bertani (LB) broth at 37°C with continuous shaking to the exponential phase. Frozen stocks of NTHi strains were thawed and then grown on chocolate agar plates during 18 h at 37°C in a humidified 5% CO2 atmosphere. Then, NTHi were grown to the exponential phase on brain heart infusion broth (BHI) supplemented with 10 µg/ml hemin and 10 µg/ml β-nicotinamide adenine dinucleotide (β-NAD) (sBHI) with continuous shaking at 37°C in a humidified 5% CO^2 atmosphere. Exponential-phase bacteria were then harvested by centrifugation at 500 g for 10 min, resuspended in PBS, and adjusted to the desired final concentration, as described in ([24]).
(§3) The microbicidal activity of LL-37 in the presence of SP-A or rfhSP-A was evaluated by colony counts on plate assays ([24], [25]). […] Viable bacteria were enumerated by colony count and results were expressed as a percentage of relative survival in comparison to untreated bacteria.

K. pneumoniae K2 [6] = experiment: Transmission electron microscopy of bacteria; type: cell-based, Klebsiella pneumoniae; conditions: LL-37 55.5 µM, SP-A 0.3 µM, rfhSP-A 1.5 µM, 30 min 37°C PBS; TEM
Method: The effect of LL-37, SP-A, rfhSP-A, and combinations thereof on the ultrastructure of K. pneumoniae was visualized by means of transmission electron microscopy, as described in ([25]). […] Cells were spun down and PBS medium was removed. Cell pellets were then chemically fixed with 4% paraformaldehyde and 2.5% glutaraldehyde for 4 h at 4°C and washed three times with PBS. Next, bacteria were post-fixed with 1% osmium tetroxide for 1 h. Samples were then washed thrice with bi-distilled water and dehydrated using sequential exposure to acetone concentrations ranging from 30% to 100% for 15 min at room temperature. Next, infiltration and embedding were performed using Spurr’s resin. The samples were sectioned using an ultramicrotome with a diamond knife and were mounted on copper grids. Samples were examined on a JEOL JEM 1010 electron microscope (JEOL, Tokyo, Japan).

P. aeruginosa = experiment: Bacterial killing assay, P. aeruginosa; conditions: 10^5 CFU/ml, PBS, 1 h 37°C; SP-A 0.012 µM, rfhSP-A 0.075 µM; increasing LL-37
Method: as §2, §3

K. pneumoniae K2 [7] = experiment: Bacterial killing assay, K. pneumoniae; conditions: 10^5 CFU/ml, PBS, 1 h 37°C; SP-A 0.11 µM, rfhSP-A 0.7 µM; increasing LL-37; CFU counting
Method: as §2, §3

K. pneumoniae = experiment: Bacterial membrane permeabilization, Sytox Green; type: cell-based, Klebsiella pneumoniae; conditions: 2.2 µM LL-37, 0.075 µM SP-A, 0.4 µM rfhSP-A, PBS pH 7.4, 37°C; three independent experiments
Method: The ability of LL-37, SP-A, rfhSP-A, and combinations thereof to permeabilize the outer and cytoplasmic bacterial membranes was studied in live bacteria by quantifying the internalization of the impermeant fluorescent Sytox Green, since its fluorescence increases when binding to bacterial DNA. For the measurement of Sytox Green influx, the probe (1 μM) was added to 1 ml of bacterial suspension (2x10^7 CFU/ml) in PBS and the sample was incubated for 15 min in darkness at room temperature as described in ([25]). Then, the fluorescence of the Sytox Green/bacterial suspension mixture was monitored for 4 hours in a FLUOstar Omega microplate reader (BMG LabTechnologies, Ortenberg, Germany) at excitation and emission wavelengths of 485 and 520 nm, respectively. PBS was used as a negative control, whereas ethanol (70%) was used as a positive control. Background fluorescence was measured in non-labeled bacteria.

Row | Compound | IL-8 release, A549, with P2X7 inhibitor (A549 cells) | effect on LL-37 cytotoxicity on human endothelial cells (human endothelial cells) | effect on antimicrobial activity of LL-37 [1] | CD spectrum / change in α-helical content [2] | antiviral activity against influenza A virus, LL-37 with SP-A (influenza A virus) | effect on human β-defensin 3 cytotoxicity on alveolar epithelial cells [3] | LPS vesicle aggregation (scattered light), with calcium ([4]; 2.5 mM Ca2+, pH 7.4) | LPS vesicle turbidity (400 nm), no calcium ([4]; pH 7.4, before Ca2+) | effect on antibacterial activity of LL-37 against NTHi [5] | effect on ultrastructure of K. pneumoniae (K. pneumoniae K2 [6]) | effect on antibacterial activity of LL-37 against P. aeruginosa (P. aeruginosa) | effect on antibacterial activity of LL-37 against K. pneumoniae (K. pneumoniae K2 [7]) | Sytox Green permeabilization of K. pneumoniae (K. pneumoniae)
1 | Clc1cccc(-c2nnnn2Cc2cccnc2)c1Cl [A-438079, reference compound] | decreased LL-37-induced IL-8 secretion | – | – | – | – | – | – | – | – | – | – | – | –
2 | apolipoprotein A-I: HDL apolipoprotein A-I | – | reduces the cytotoxicity of LL-37 on human endothelial cells | reduces the antimicrobial activity of LL-37 | – | – | – | – | – | – | – | – | – | –
3 | SP-A: Human surfactant protein A isolated from bronchoalveolar lavage fluid of patients with alveolar proteinosis | not observed in the presence of the P2X7 inhibitor | – | – | marked decrease of negative ellipticity without any shift of the minimum at 207 nm | additive antiviral activity against influenza A virus | reduced cytotoxicity on alveolar epithelial cells | greatly increased | did not affect sample turbidity | neither SP-A nor rfhSP-A modifies the antibacterial activity of LL-37 | did not cause any perturbation of the bacterial cell wall | neither SP-A nor rfhSP-A modifies the antibacterial activity of LL-37 | neither SP-A nor rfhSP-A modifies the antibacterial activity of LL-37 | did not affect the fluorescence of the dye
